In general, Ki refers to the equilibrium dissociation constant of an inhibitor or competing ligand from its target.

In one assay the target is T1, DDR1 (Homo sapiens, UniProt Q08345).
T1 construct: purchased Carna Biosciences
Kind of assay: LanthaScreen Europium Kinase Binding assay, DDR1. As to conditions: 5 nM DDR1, 20 nM Kinase Tracer 178, 1 h at rt; Ki from IC50 by Cheng-Prusoff; read-out: Ki DDR1. The protocol: (§1) DDR1 and DDR2 binding assays were performed using Life Technologies LanthaScreen™ Europium Kinase Binding assay. […] IC50 values were determined in GraphPad Prism 7.0 software, using 4 parameter model: log (inhibitor) vs. response. IC50 values were converted in Ki using the Cheng-Prusoff equation (Ki-IC50/(1+ [Tracer]/Kd).

The target in the next assay is T2, DDR2 (Homo sapiens, UniProt Q16832).
T2 construct: purchased Life Technologies
T2 sequence (Q16832 22-855): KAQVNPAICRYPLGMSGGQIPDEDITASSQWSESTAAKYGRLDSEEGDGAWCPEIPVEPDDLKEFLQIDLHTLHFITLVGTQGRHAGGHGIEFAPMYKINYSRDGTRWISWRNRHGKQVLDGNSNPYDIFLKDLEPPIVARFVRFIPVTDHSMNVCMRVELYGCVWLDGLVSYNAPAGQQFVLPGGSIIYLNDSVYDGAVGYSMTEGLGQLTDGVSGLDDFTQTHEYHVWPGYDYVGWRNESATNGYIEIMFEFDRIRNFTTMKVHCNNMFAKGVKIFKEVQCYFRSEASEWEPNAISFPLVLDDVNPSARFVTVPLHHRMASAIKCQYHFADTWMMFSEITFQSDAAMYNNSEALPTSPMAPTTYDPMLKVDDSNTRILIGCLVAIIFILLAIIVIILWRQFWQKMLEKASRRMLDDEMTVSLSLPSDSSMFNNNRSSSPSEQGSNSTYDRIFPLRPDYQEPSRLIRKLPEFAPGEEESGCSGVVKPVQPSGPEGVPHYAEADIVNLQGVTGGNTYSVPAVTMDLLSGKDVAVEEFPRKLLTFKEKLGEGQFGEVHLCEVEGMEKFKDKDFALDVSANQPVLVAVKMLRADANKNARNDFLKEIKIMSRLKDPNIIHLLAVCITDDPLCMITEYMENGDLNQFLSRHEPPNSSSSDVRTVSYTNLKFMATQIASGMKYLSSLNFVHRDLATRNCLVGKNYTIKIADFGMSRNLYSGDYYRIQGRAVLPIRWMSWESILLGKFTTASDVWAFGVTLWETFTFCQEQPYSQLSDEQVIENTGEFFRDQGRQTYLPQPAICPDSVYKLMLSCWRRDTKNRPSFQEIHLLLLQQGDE
Briefly: LanthaScreen Europium Kinase Binding assay, DDR2. The conditions noted are these: 5 nM DDR2, 10 nM Kinase Tracer 178, 1 h at rt; Ki from IC50 by Cheng-Prusoff; read-out: Ki DDR2. The protocol: as §1
On the technique in general: In TR-FRET formats the signal depends on donor and acceptor labels being close together.

T1 sequence (Q08345 19-913): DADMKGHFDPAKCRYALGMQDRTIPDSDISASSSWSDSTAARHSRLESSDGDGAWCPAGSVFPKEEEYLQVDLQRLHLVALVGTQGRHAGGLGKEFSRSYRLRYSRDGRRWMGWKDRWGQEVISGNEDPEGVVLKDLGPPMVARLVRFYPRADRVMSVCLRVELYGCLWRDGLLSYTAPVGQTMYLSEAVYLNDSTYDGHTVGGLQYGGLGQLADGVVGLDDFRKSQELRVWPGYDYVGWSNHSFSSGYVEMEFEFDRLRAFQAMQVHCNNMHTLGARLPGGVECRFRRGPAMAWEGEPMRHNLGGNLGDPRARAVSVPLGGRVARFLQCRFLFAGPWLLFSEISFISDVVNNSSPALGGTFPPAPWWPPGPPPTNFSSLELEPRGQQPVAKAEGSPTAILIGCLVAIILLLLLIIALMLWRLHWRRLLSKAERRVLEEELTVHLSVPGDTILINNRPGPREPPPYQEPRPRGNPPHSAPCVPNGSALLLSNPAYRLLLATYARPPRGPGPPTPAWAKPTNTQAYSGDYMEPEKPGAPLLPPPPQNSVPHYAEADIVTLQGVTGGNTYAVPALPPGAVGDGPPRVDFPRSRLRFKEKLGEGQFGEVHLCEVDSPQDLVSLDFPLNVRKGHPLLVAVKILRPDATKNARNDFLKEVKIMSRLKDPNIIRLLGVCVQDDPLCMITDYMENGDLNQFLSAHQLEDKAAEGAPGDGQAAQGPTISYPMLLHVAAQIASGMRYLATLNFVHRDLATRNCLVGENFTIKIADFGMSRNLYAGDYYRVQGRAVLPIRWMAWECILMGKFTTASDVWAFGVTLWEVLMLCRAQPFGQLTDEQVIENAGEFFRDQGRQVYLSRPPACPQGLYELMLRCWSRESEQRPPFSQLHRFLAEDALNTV

Take `Cn1ccn2ncc(C(=O)N3CC4(CC(NC(=O)Nc5cc(C(F)(F)F)ccc5F)C4)C3)c12` [Example 123, 1-(2-fluoro-5-(trifluoromethyl)phenyl)-3-(2-(1-methyl-1H-imidazo[1,2-b]pyrazole-7-carbonyl)-2-azaspiro[3.3]heptan-6-yl)urea]: the inhibition constant Ki at DDR1 was less than 5 nM; on DDR2, 5 to 25 nM.

In the case of `O=C(Nc1cccc(C(F)(F)F)c1)NC1CC2(C1)CN(C(=O)c1cnc3cccnn13)C2` [Example 7, 1-(2-(imidazo[1,2-b]pyridazine-3-carbonyl)-2-azaspiro[3.3]heptan-6-yl)-3-(3-(trifluoromethyl)phenyl)urea], the Ki at DDR1 and at DDR2 was 5 to 25 nM each time.

As to `CN(C(=O)Nc1cncc(OC(F)(F)F)c1)C1CC2(C1)CN(C(=O)c1cnn3ccn(C)c13)C2` [Example 172, 1-methyl-1-(2-(1-methyl-1H-imidazo[1,2-b]pyrazole-7-carbonyl)-2-azaspiro[3.3]heptan-6-yl)-3-(5-(trifluoromethoxy)pyridin-3-yl)urea], the Ki was less than 5 nM on DDR1 and 5 to 25 nM at DDR2.

As to `CN(C(=O)Nc1cc(OC(F)(F)F)ccn1)C1CC2(C1)CN(C(=O)c1ncnc3[nH]ccc13)C2` [Example 205, 1-(2-(7H-pyrrolo[2,3-d]pyrimidine-4-carbonyl)-2-azaspiro[3.3]heptan-6-yl)-1-methyl-3-(4-(trifluoromethoxy)pyridin-2-yl)urea], the Ki at DDR1 is less than 5 nM; at DDR2, 5 to 25 nM.

Take `CCN(C(=O)Nc1cccc(C(F)(F)F)c1)C1CC2(C1)CN(C(=O)c1cnn3ccn(C)c13)C2` [Example 85, 1-ethyl-1-(2-(1-methyl-1H-imidazo[1,2-b]pyrazole-7-carbonyl)-2-azaspiro[3.3]heptan-6-yl)-3-(3-(trifluoromethyl)phenyl)urea]: the Ki at DDR1 is less than 5 nM; on DDR2 it was 5 to 25 nM.

For `COc1ccc(OC(F)(F)F)cc1NC(=O)CC1CC2(C1)CN(C(=O)c1cnn3ccn(C)c13)C2` [Example 142, N-(2-methoxy-5-(trifluoromethoxy)phenyl)-2-(2-(1-methyl-1H-imidazo[1,2-b]pyrazole-7-carbonyl)-2-azaspiro[3.3]heptan-6-yl)acetamide], the inhibition constant (Ki) at DDR1 and on DDR2 was less than 5 nM in each case.

Turning to `Cc1ncc(-c2ccc3c(C(=O)N4CC5(CC(N(C)C(=O)Nc6cncc(C(F)(F)F)c6)C5)C4)cnn3c2)o1` [Example 229, 1-methyl-1-(2-(6-(2-methyloxazol-5-yl)pyrazolo[1,5-a]pyridine-3-carbonyl)-2-azaspiro[3.3]heptan-6-yl)-3-(5-(trifluoromethyl)pyridin-3-yl)urea], the inhibition constant Ki is less than 5 nM on DDR1 and 5 to 25 nM at DDR2.

For `O=C(Nc1cncc(C(F)(F)F)c1)NC1CC2(C1)CN(c1cnc3[nH]ncc3c1)C2` [Example 304, 1-(2-(1H-pyrazolo[3,4-b]pyridin-5-yl)-2-azaspiro[3.3]heptan-6-yl)-3-(5-(trifluoromethyl)pyridin-3-yl)urea], the Ki is less than 5 nM at DDR1 and 5 to 25 nM at DDR2.

`CN(C(=O)Nc1cc(Cl)cc(C(F)(F)F)c1)C1CC2(C1)CN(C(=O)c1cnn3ccn(C)c13)C2` [Example 224, 3-(3-chloro-5-(trifluoromethyl)phenyl)-1-methyl-1-(2-(1-methyl-1H-imidazo[1,2-b]pyrazole-7-carbonyl)-2-azaspiro[3.3]heptan-6-yl)urea]: the figures for the Ki at DDR1 and at DDR2 were less than 5 nM and 5 to 25 nM, respectively.

Consider `Cn1ccn2ncc(C(=O)N3CC4(CC(NC(=O)Nc5cc(C6CC6)ccn5)C4)C3)c12` [Example 155, 1-(4-cyclopropylpyridin-2-yl)-3-(2-(1-methyl-1H-imidazo[1,2-b]pyrazole-7-carbonyl)-2-azaspiro[3.3]heptan-6-yl)urea], for which the Ki on DDR1 is less than 5 nM; at DDR2, 5 to 25 nM.

In the case of `COc1ccc(OC(F)(F)F)cc1NC(=O)N(C)C1CC2(C1)CN(C(=O)c1cnn3ccc(N4CCN(C)CC4)cc13)C2` [Example 81, 3-(2-methoxy-5-(trifluoromethoxy)phenyl)-1-methyl-1-(2-(5-(4-methylpiperazin-1-yl)pyrazolo[1,5-a]pyridine-3-carbonyl)-2-azaspiro[3.3]heptan-6-yl)urea], the Ki was less than 5 nM on DDR1 and 5 to 25 nM at DDR2.

As to `CN(C(=O)Nc1cncc(OC(F)(F)F)c1)C1CC2(C1)CN(c1cnc3[nH]ncc3c1)C2` [Example 221, 1-(2-(1H-pyrazolo[3,4-b]pyridin-5-yl)-2-azaspiro[3.3]heptan-6-yl)-1-methyl-3-(5-(trifluoromethoxy)pyridin-3-yl)urea], the Ki is less than 5 nM on DDR1 and 5 to 25 nM at DDR2.

For `CN(C(=O)Nc1cc(I)ccn1)C1CC2(C1)CN(C(=O)c1cnn3ccn(C)c13)C2` [Example 254, 3-(4-iodopyridin-2-yl)-1-methyl-1-(2-(1-methyl-1H-imidazo[1,2-b]pyrazole-7-carbonyl)-2-azaspiro[3.3]heptan-6-yl)urea], the Ki on DDR1 was less than 5 nM; on DDR2, 5 to 25 nM.

For `Cn1ccn2ncc(C(=O)N3CC4(CC(NC(=O)Nc5cc(C(F)(F)F)cc(C#N)n5)C4)C3)c12` [Example 168, 1-(6-cyano-4-(trifluoromethyl)pyridin-2-yl)-3-(2-(1-methyl-1H-imidazo[1,2-b]pyrazole-7-carbonyl)-2-azaspiro[3.3]heptan-6-yl)urea], the Ki on DDR1 was less than 5 nM; at DDR2, 5 to 25 nM.

For the compound `Cn1ccn2ncc(C(=O)N3CC4(CC(CC(=O)Nc5cc(OC(F)(F)F)ccn5)C4)C3)c12` [Example 277, 2-(2-(1-methyl-1H-imidazo[1,2-b]pyrazole-7-carbonyl)-2-azaspiro[3.3]heptan-6-yl)-N-(4-(trifluoromethoxy)pyridin-2-yl)acetamide], the Ki is less than 5 nM on DDR1 and 5 to 25 nM at DDR2.

For the compound `O=C(Nc1cccc(CC(F)(F)F)c1)NC1CC2(C1)CN(C(=O)c1ccnc3[nH]ncc13)C2` [Example 153, 1-(2-(1H-pyrazolo[3,4-b]pyridine-4-carbonyl)-2-azaspiro[3.3]heptan-6-yl)-3-(3-(2,2,2-trifluoroethyl)phenyl)urea], the inhibitory constant (Ki) on DDR1 and at DDR2 was less than 5 nM each time.

As for `Cn1ccn2ncc(C(=O)N3CC4(CC(NC(=O)Nc5cc(OC(F)(F)F)ccc5F)C4)C3)c12` [Example 72, 1-(2-fluoro-5-(trifluoromethoxy)phenyl)-3-(2-(1-methyl-1H-imidazo[1,2-b]pyrazole-7-carbonyl)-2-azaspiro[3.3]heptan-6-yl)urea], the Ki on DDR1 is less than 5 nM; on DDR2, 5 to 25 nM.

Turning to `O=C(Nc1cccc(S(F)(F)(F)(F)F)c1)NC1CC2(C1)CN(C(=O)c1ccnc3[nH]ncc13)C2` [Example 120, 1-(2-(1H-pyrazolo[3,4-b]pyridine-4-carbonyl)-2-azaspiro[3.3]heptan-6-yl)-3-(3-(pentafluoro-16-sulfaneyl)phenyl)urea], the Ki at DDR1 and at DDR2 was less than 5 nM each time.

For the compound `COCCn1ccn2ncc(C(=O)N3CC4(CC(N(C)C(=O)Nc5cncc(C(F)(F)F)c5)C4)C3)c12` [Example 213, 1-(2-(1-(2-methoxyethyl)-1H-imidazo[1,2-b]pyrazole-7-carbonyl)-2-azaspiro[3.3]heptan-6-yl)-1-methyl-3-(5-(trifluoromethyl)pyridin-3-yl)urea], the inhibition constant Ki on DDR1 was 5 to 25 nM; on DDR2, 25 to 100 nM.

Take `CN(C(=O)Nc1cccc(C(F)(F)F)c1)C1CC2(C1)CN(C(=O)c1ccnc3[nH]ccc13)C2` [Example 248, 1-(2-(1H-pyrrolo[2,3-b]pyridine-4-carbonyl)-2-azaspiro[3.3]heptan-6-yl)-1-methyl-3-(3-(trifluoromethyl)phenyl)urea]: the inhibitory constant (Ki) on DDR1 was less than 5 nM; on DDR2, 5 to 25 nM.

Turning to `COc1ncc(C(F)(F)F)cc1NC(=O)NC1CC2(C1)CN(C(=O)c1cnn3ccn(C)c13)C2` [Example 107, 1-(2-methoxy-5-(trifluoromethyl)pyridin-3-yl)-3-(2-(1-methyl-1H-imidazo[1,2-b]pyrazole-7-carbonyl)-2-azaspiro[3.3]heptan-6-yl)urea], the Ki on DDR1 is less than 5 nM; at DDR2, 5 to 25 nM.

For the compound `CN(C(=O)Nc1cncc(C(C)(F)F)c1)C1CC2(C1)CN(C(=O)c1cnn3ccn(C)c13)C2` [Example 173, 3-(5-(1,1-difluoroethyl)pyridin-3-yl)-1-methyl-1-(2-(1-methyl-1H-imidazo[1,2-b]pyrazole-7-carbonyl)-2-azaspiro[3.3]heptan-6-yl)urea], the figures for the inhibition constant Ki on DDR1 and at DDR2 were less than 5 nM and 25 to 100 nM, respectively.

(Values after patent US20260285855A1, “HETEROARYL DERIVATIVES AS DDRS INHIBITORS” (CHIESI FARMACEUTICI S.P.A., priority 2023, published 2026).)
